Test results as given in patent US12048686B2, “Compositions and methods for activating NRF2-dependent gene expression” (The University of Chicago, priority 2018, dated 2024).
“Also recorded” adds a separate entry of the source.

Columns and labels:
GAPDH = GAPDH (Homo sapiens, UniProt P04406); test: GAPDH equilibrium in the GAPDH/PGK1 coupled assay; assay type: biochemical; conditions: without PGK1
Excerpt: FIG. 6A-D. CBR-470-1 inhibits PGK1 in vitro and in situ. (a) Schematic of the GAPDH/PGK1 coupled assay. Pre-equilibration of the GAPDH reaction (top left) results in an NAD^+/NADH equilibrium, which upon addition of PGK1 and ADP pulls the reaction to the right producing more NADH. Monitoring NADH absorbance after addition of PGK1 (bottom right) can be used to monitor PGK1 activity in the forward direction (right). […] (c, d) Relative level of central metabolites in IMR32 cells treated with viral knockdown of PGK1 for 72 hours (c) (n=4) and with CBR-470-1 relative DMSO alone for the indicative times (d) (n=3). Each metabolite is normalized to the control condition at each time point. Data shown represent mean±SEM of biologically independent samples.
Recombinant PGK1 assay. PGK1 enzymatic activity in the forward direction was measured with a coupled enzymatic assay^34. Three PGK1 conditions were prepared by dissolving recombinant PGK1 in potassium phosphate buffer (10 mM KH2PO4, 10 mM MgSO4, pH 7.0), and transferring the aliquots of PGK1 solution to the microtubes being treated with same amount of DMSO and indicated concentrations of CBR-470-1. Final concentration of PGK1 is 20 ng/mL and DMSO is 1% for each sample. […] The change in absorbance at 340 nm at room temperature was measured every 20 seconds for 45 minutes, by Tecan Infinite M200 plate reader. […]

[1] = system: MHS cells (a murine alveolar macrophage cell line); test: PM- or LPS-induced mRNA expression in MHS cells; assay type: cell-based
Experimental: FIG. 14A-B. MHS cells (a murine alveolar macrophage cell line) were treated with particulate matter (PM) or LPS and vehicle control (media) in the absence or presence of CBR-470-1 (pretreated 4 hours prior to PM/LPS) and measured IL-6 mRNA 4 hours later.
FIG. 15A-B. MHS cells were treated with particulate matter (PM) or LPS and vehicle control (media) in the absence or presence of CBR-470-1 (also noted as Drug in the figure) (pretreated 4 hours prior to PM/LPS) and measured TNFa and NQO1 mRNA 4 hours later. […] NQO1 (NAD(P)H:quinone oxidoreductase), also known as DT-diaphorase, is a major regulator of oxidative stress and activator of mitomycins. ROS produced during metabolic processes are normally converted into harmless products by antioxidant enzymes such as NQO1.
FIG. 16A-B. MHS cells were treated with particulate matter (PM) or LPS and vehicle control (media) in the absence or presence of different doses of CBR-470 (pretreated 4 hours prior to PM/LPS) and measured IL-6 mRNA 4 hours later.
FIG. 17A-B. MHS cells were treated with particulate matter (PM) or LPS and vehicle control (media) in the absence or presence of different doses of CBR-470-1 (pretreated 4 hours prior to PM/LPS) and measured TNFa and NQO1 mRNA 4 hours later.
FIG. 18A-C. MHS cells were treated with particulate matter (PM) or LPS and vehicle control (media) in the absence or presence of CBR-470-1 (5 uM, pretreated 4 hours prior to PM/LPS) and measured IL-6, TNFa and NQO1 mRNA 4 hours and 24 hours later.

Human lung fibroblasts = test: TGF-beta-induced collagen and SMA in human lung fibroblasts (Western blot); assay type: cell-based; conditions: increasing doses, day 0, 1, 2
Experimental: FIG. 22. Human lung fibroblasts were treated with TGF-beta and increasing doses of CBR-470 and measured collagen and alpha-smooth muscle actin (a-SMA), a marker for myofibroblast differentiation at day 0, 1, and 2.
Fibrosis is defined by the overgrowth, hardening, and/or scarring of various tissues and is attributed to excess deposition of extracellular matrix components including collagen. Fibrosis is the end result of chronic inflammatory reactions induced by a variety of stimuli including persistent infections, autoimmune reactions, allergic responses, chemical insults, radiation, and tissue injury. Fibroblasts under stimulation by transforming growth factor (TGF)-β, a key cytokine in the pathogenesis of IPF, alter their gene expression profile with de novo expression of cytoskeletal and contractile proteins normally found within smooth muscle cells, and components of the extracellular matrix, including collagen. Fibroblast cells were treated with TGF-β for 24 or 48 hours or left untreated (0). Collagen was detected by Westernblot using an anti-collagen antibody (Cedarlane, CL50111AP-1, 1:3000 dilution). SMA was detected with an anti-SMA antibody from Sigma (T6074, 1:20000 dilution). […] Collagen and SMA production are biomarkers of fibrotic phenotypes in vivo (FIG. 22).

IMR32 = test: Seahorse XF96 global bioenergetics in IMR32 cells; assay type: cell-based; conditions: IMR32, 1 hr
Experimental: (§1) Cells were plated for 24 hrs., then incubated with the indicated doses of CBR-470 for 1 hr. Under CBR-470-1 treated conditions, cellular ECAR and OCR was recorded for CBR-470 alone, CBR-470+10 mM Glucose, and CBR-470+3 μM Oligomycin.
as §1, with “Genetic manipulation of central glycolytic targets GLO1 and PGK1 regulate viability in the very sensitive colorectal cancer cell line HCT116. […] (FIG. 42). […] Cells” for “Cells”

[2] = pretreated 4 hours, measured 4 hours later

GAPDH, sequence (P04406 whole entry, species assumed): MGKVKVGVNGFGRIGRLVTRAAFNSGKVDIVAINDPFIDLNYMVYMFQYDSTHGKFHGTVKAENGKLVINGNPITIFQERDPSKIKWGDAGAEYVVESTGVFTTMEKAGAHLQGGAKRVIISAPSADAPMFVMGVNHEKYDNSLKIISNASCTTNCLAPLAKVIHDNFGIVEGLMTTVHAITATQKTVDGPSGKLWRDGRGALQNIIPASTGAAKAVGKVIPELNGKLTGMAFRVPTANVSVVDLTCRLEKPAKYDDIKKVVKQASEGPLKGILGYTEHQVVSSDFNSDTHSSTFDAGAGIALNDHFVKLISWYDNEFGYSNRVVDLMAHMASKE

Structure (SMILES): CC(C)CN[C@H]1CS(=O)(=O)C[C@@H]1S(=O)(=O)c1ccc(Cl)cc1 [CBR-470-1]
- GAPDH equilibrium (GAPDH): does not affect the GAPDH equilibrium alone
- NQO1 mRNA ([1]; different doses, 4 hours): induced NQO1 (Nrf2 target gene) under both PM and LPS in a dose dependent manner
- TNFa mRNA ([1]; different doses, 4 hours): attenuated PM- and LPS-induced TNFa mRNA expression
- IL-6 mRNA [1, 2]: abolished PM- and LPS-induced il6 mRNA expression
- NQO1 mRNA [1, 2]: induced NQO1 (Nrf2 target gene) under both PM and LPS
- TNFa mRNA [1, 2]: abolished PM- and LPS-induced TNFa mRNA expression
- alpha-smooth muscle actin (a-SMA), marker for myofibroblast differentiation (Human lung fibroblasts): dose- and time-dependent inhibition of collagen and smooth-muscle actin (SMA) protein production; also recorded: inhibited myofibroblast differentiation and collagen protein expression in a dose dependent manner
- collagen protein (Human lung fibroblasts): dose- and time-dependent inhibition of collagen and smooth-muscle actin (SMA) protein production; also recorded: inhibited myofibroblast differentiation and collagen protein expression in a dose dependent manner
- glycolytic flux (Extracellular Acidification Rate, ECAR) (IMR32): reduced glycolytic flux and oxidative phosphorylation rate
- oxidative phosphorylation rate (Oxygen Consumption Rate, OCR) (IMR32): reduced glycolytic flux and oxidative phosphorylation rate
